Targets include HLA-B*4001 (Homo sapiens, UniProt P01889, A65T/A93T/A95T/D138N/D98Y/E176V/E69K/N87E/Q56L/Q94N/R180L/S121R/S35A/S48T/T167S/V36M/W171L/Y33H/Y91S); HLA-B*4403 (Homo sapiens, UniProt P01889, A223V/A65T/A93T/A95T/D201E/D98Y/E176V/E187L/E204Q/E69K/G107R/H137Y/K202T/L105A/L119I/N104T/N87E/Q56L/Q94N/R106L/R155S/R180L/S101N/S121R/S35A/S48T/T118I/V36M/W191S/Y140D/Y91S); HLA-B*4002 (Homo sapiens, UniProt P01889, A65T/A93T/A95T/D138N/D201E/D98Y/E176V/E204Q/E69K/K202T/N87E/Q56L/Q94N/R180L/S48T/Y33H/Y91S); HLA-B*4402 (Homo sapiens, UniProt P01889, A223V/A65T/A93T/A95T/D201E/D98Y/E176V/E187L/E204Q/E69K/G107R/H137Y/K202T/L105A/L119I/N104T/N87E/Q56L/Q94N/R106L/R155S/R180D/S101N/S121R/S35A/S48T/T118I/V36M/W191S/Y140D/Y91S); HLA-B*1801 (Homo sapiens, UniProt P01889, A329T/A93T/A95T/C349S/D201E/D54G/D98Y/E176V/E187T/E204Q/E69T/K202T/Q94N/R155S/R180L/S121R/V306I/Y140S/Y195H/Y33H/Y91S); HLA-DR DRB3*0101 (DR52) (Homo sapiens, UniProt P01903+P79483); HLA-DR DRB1*0301 (DR3) (Homo sapiens, UniProt P01903+P01911, A100K/A102G/A103R/A169T/F55Y/I96L/K41T/L162R/M171V/P40S/Q125H/Q178H/Q39Y/R42S/S66N/T106N/T262R/W38E/Y61H); HLA-DR DRB1*0802 (DR8) (Homo sapiens, UniProt P01903+P01911, A100R/A103L/A169T/F76Y/H45Y/I96F/K41T/L162R/M171V/P40S/Q125H/Q178H/Q39Y/Q99D/R218S/R42G/S66Y/V115G/W38E); HLA-B*4501 (Homo sapiens, UniProt P01889, A329T/A65T/A93T/A95T/C349S/D138N/D201E/D98Y/E176V/E187L/E204Q/E69K/H137Y/K202T/L119W/N87E/Q56L/Q94N/R155S/R180D/S121R/S35A/S48T/V127L/V306I/V36M/W191S/Y140L/Y33H/Y91S).

Assay in all cases: biochemical
Assay type in all cases: binding

A further test deals with HLA-DR DRB1*0701 (DR7) (Homo sapiens, UniProt P01903+P01911, A100R/A102G/A103Q/D57E/D86V/E43K/F76Y/K127E/L162R/M171V/P40G/Q125H/Q99D/R33Q/R42Y/R54Q/S133A/S66F/T210M/V115G/Y107V/Y59L/Y89S). The note with it: DRB1 *0701.
Another test addresses HLA-DR DRB1*1501 (DR15) (Homo sapiens, UniProt P01903+P01911). The note with it: DRBI *1501.
The target of another test is HLA-DR DRB1*1302 (DR13) (Homo sapiens, UniProt P01903+P01911, A100E/A169T/K41T/L162R/M171V/P40S/Q125H/Q178H/Q39Y/Q99D/R42S/S66N/T262R/V115G/W38E/Y61H). The note with it: DRBI *1302.
The next test deals with HLA-DR DRB1*0405 (DR4) (Homo sapiens, UniProt P01903+P01911, A100R/A169T/D86S/F76Y/I96L/K127E/L162R/M171V/N62H/P40V/Q125Y/R42H/S133A/S149N/S66Y/V115G/V209L/W38E). The following applies: DRB1 *0405.
The next test addresses HLA-DR DRB1*1101 (DR11) (Homo sapiens, UniProt P01903+P01911, A100R/A169T/A87E/I96F/K41T/L162R/M171V/P40S/Q125H/Q178H/Q39Y/Q99D/R42S/S66Y/T262R/V115G/W38E). The following applies: DRB1 *1101.
The target of another test is HLA-DR DRB1*0901 (DR9) (Homo sapiens, UniProt P01903+P01911, A100R/A103E/D57H/D86V/F55Y/F60I/F76Y/I96F/K127E/L162R/M171V/P40D/Q125H/Q99R/R33Q/R42F/S133A/S66N/T210M/V115G/W38K/Y107V/Y59G/Y89S). The note with it: DRB1 *0901.
The target of the next test is HLA-DR DRB1*0401 (DR4) (Homo sapiens, UniProt P01903+P01911, A100K/A169T/F76Y/I96L/K127E/L162R/M171V/N62H/P40V/Q125Y/R42H/S133A/S149N/S66Y/V115G/V209L/W38E). The note with it: DRB1 *0401.
The next test has as its target HLA-DR DRB5*0101 (DR51) (Homo sapiens, UniProt P01903+Q30154). The following applies: DRB5 *0101.
The next test deals with HLA-DR DRB1*0101 (DR1) (Homo sapiens, UniProt P01903+P01911, A100R/D57E/F55L/F60I/F76Y/I96L/L162R/M171V/P40L/Q125E/R42F/V115G/Y59C). The following applies: DRB1 *0101.

pIC50: −log10 of the molar value. Like-named read-outs stand apart in the source and are kept apart here. No end group written: not given here. Bounds are passed on as bounds.

HLA-DR DRB1*1302 (DR13), sequence (P01903 26-254 limits assumed, other chains not shown): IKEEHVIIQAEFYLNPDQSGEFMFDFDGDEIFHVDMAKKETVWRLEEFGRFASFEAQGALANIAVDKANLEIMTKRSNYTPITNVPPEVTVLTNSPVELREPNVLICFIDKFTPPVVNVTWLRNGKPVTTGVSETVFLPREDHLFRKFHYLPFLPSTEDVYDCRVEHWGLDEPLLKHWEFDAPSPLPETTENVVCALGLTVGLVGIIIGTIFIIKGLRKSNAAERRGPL
HLA-DR DRB1*1101 (DR11), sequence (P01903 26-254 limits assumed, other chains not shown): as above
HLA-DR DRB1*0301 (DR3), sequence (P01903 26-254 limits assumed, other chains not shown): as above

Consider NENLWVTVY, for which the pIC50 against HLA-B*4001 is less than 4.14; against HLA-B*4403, 6.65; against HLA-B*4002, 4.93; on HLA-B*4402, 6.34; against HLA-B*1801, 7.42.
As for AENLWVFVY, the pIC50 on HLA-B*4001 is 6.07; on HLA-B*4403, 6.51; on HLA-B*4402, 6.46.
Take AENPWVTVY: the pIC50 is 7.28 against HLA-B*4403, 6.65 on HLA-B*4002, 7.74 against HLA-B*4402 and 7.57 at HLA-B*1801.
Regarding LWQLNGRLEYTLKDR, the pIC50 on HLA-DR DRB1*0701 (DR7) was 4.69; on HLA-DR DRB1*1501 (DR15), 6.07; at HLA-DR DRB1*1302 (DR13), 5.61; on HLA-DR DRB1*0405 (DR4) it was 7.03; on HLA-DR DRB1*1101 (DR11) it was 5.19; on HLA-B*4403 (B*4403), 9.96. For the same compound, the pIC50 against HLA-DR DRB1*0901 (DR9) is 4.78; at HLA-DR DRB1*0401 (DR4), 6.12; on HLA-DR DRB3*0101 (DR52), 5.36; at HLA-DR DRB1*0301 (DR3), 6.29; at HLA-DR DRB1*0802 (DR8), 4.36; against HLA-DR DRB5*0101 (DR51), 5.22. For the same compound, the pIC50 at HLA-DR DRB1*0101 (DR1) was 6.16.
In the case of AENLWLTVY, the pIC50 against HLA-B*4001 is 5.77; against HLA-B*4403, 6.65; at HLA-B*4002, 6.05; on HLA-B*4402, 6.19; against HLA-B*1801, 6.18.
With GEISPYPSL, the pIC50 on HLA-B*4001 is 7.62; against HLA-B*4403 it was 6.53; against HLA-B*4002 it was 8.74; at HLA-B*1801, 4.71.
Regarding AENLDVTVY, the pIC50 against HLA-B*4001 is 6.66; against HLA-B*4403 it was 6.47; against HLA-B*4002, 4.92; against HLA-B*4402, 6.17.
On to AENLVVTVY, for which the pIC50 is 6.14 at HLA-B*4501; 6.06 against HLA-B*4001; 6.69 against HLA-B*4403; 5.87 on HLA-B*4002; 7.21 against HLA-B*1801.
In the case of AENLWDTVY, the pIC50 was 5.94 at HLA-B*4001, 7.17 on HLA-B*4403, 5.68 against HLA-B*4002 and 6.11 on HLA-B*1801.
Consider AENLWTTVY, for which the pIC50 against HLA-B*4001 was 6.61; on HLA-B*4403, 7.30; on HLA-B*4402, 7.29.
On to AENLWVTVR, for which the pIC50 against HLA-B*4501 is 6.63; at HLA-B*4403, 5.83; at HLA-B*4002, 5.76; on HLA-B*1801, 4.48.
AENLWNTVY: the pIC50 was 5.87 against HLA-B*4001; 7.09 against HLA-B*4403; 6.02 on HLA-B*4002; 7.18 at HLA-B*4402; 6.47 at HLA-B*1801.
AENDWVTVY: the pIC50 against HLA-B*4001 is 6.02; against HLA-B*4403 it was 6.78; on HLA-B*4402, 7.02; against HLA-B*1801 it was 6.49.
Turning to AENLWVTNY, the pIC50 on HLA-B*4001 is 6.06; against HLA-B*4403, 7.13; on HLA-B*4002, 6.02; on HLA-B*1801, 6.14.
Regarding SEAIHTFQY, the pIC50 against HLA-B*4001 (B*4001) was 5.54; on HLA-B*4403 (B*4403) it was 7.80; against HLA-B*4002 (B*4002), 5.74; against HLA-B*4402 (B*4402), 7.74; at HLA-B*1801 (B*1801), 7.60.
For the compound AEMGKGSFKY, the pIC50 against HLA-B*4501 (B*4501) was 6.52; against HLA-B*4001 (B*4001), 5.19; at HLA-B*4403 (B*4403) it was 7.05; on HLA-B*4002 (B*4002), 5.42; against HLA-B*1801 (B*1801), 5.79.
TEPAAVGVGAV: the pIC50 against HLA-B*4501 (B*4501) is 5.08; against HLA-B*4001 (B*4001), 6.03; on HLA-B*4403 (B*4403) it was 6.34; against HLA-B*1801 (B*1801), less than 5.09.
Consider AEIPTRVNY, for which the pIC50 at HLA-B*4001 (B*4001) was 5.11; against HLA-B*4403 (B*4403), 7.64; on HLA-B*4002 (B*4002), 5.26; on HLA-B*1801 (B*1801) it was 5.77.
In the case of AEMGKFKYSF, the pIC50 against HLA-B*4403 (B*4403) is 7.51; at HLA-B*4002 (B*4002) it was 8.42; at HLA-B*4402 (B*4402), 7.74; against HLA-B*1801 (B*1801) it was 6.81.
For AEVLWVTVY, the pIC50 is 5.81 against HLA-B*4001, 6.41 on HLA-B*4403, 6.36 against HLA-B*4002 and 5.82 on HLA-B*4402.
In the case of AENLWKTVY, the pIC50 was 6.07 at HLA-B*4001, 6.42 on HLA-B*4403, 6.39 against HLA-B*4002 and 6.04 on HLA-B*1801.
In the case of AENLWVTVL, the pIC50 against HLA-B*4001 is 7.85; against HLA-B*4403, 6.68; at HLA-B*4002 it was 7.89; at HLA-B*4402, 7.17; against HLA-B*1801, 5.21.
The matching figures for AENLWVDVY: 6.15, 7.04, 5.46, 6.48 and 6.38.
On to AEPLWVTVY, for which the pIC50 on HLA-B*4001 is 5.76; against HLA-B*4403 it was 7.02; at HLA-B*4002, 5.60; on HLA-B*1801, 6.51.
With `CC[C@H](C)[C@H](NC(=O)[C@@H](NC(=O)[C@H](CS)NC(=O)[C@@H](NC(=O)[C@@H]1CCCN1C(=O)[C@@H]1CCCN1C(=O)[C@H](CCC(N)=O)NC(=O)[C@@H]1CCCN1C(=O)[C@H](CC(C)C)NC(=O)[C@H](CCCNC(=N)N)NC(=O)[C@H](CCC(=O)O)NC(=O)CN)[C@@H](C)CC)[C@@H](C)O)C(=O)O`, the pIC50 is 8.60 on HLA-B*4403 (B*4403) and 8.41 against HLA-B*4002 (B*4002).
On to AENLWVTVW, for which the negative logarithm of the IC50 (pIC50) is 6.69 against HLA-B*4501, 5.88 on HLA-B*4001, 6.49 at HLA-B*4403 and 4.65 against HLA-B*1801.

By pIC50 is commonly meant −log10 of the IC50, conventionally taken in molar units. A low value points to a high IC50.

The record behind these values is patent publication US20060079453A1, “Hla binding peptides and their uses” (priority 2002, published 2006).
